Experimental data reported in article PMC9070039, “Synthesis and evaluation of antimicrobial activity, cytotoxic and pro-apoptotic effects of novel spiro-4H-pyran derivatives” (RSC Advances, 2019).
In brackets after ≈: the same amount, converted by molar mass.

Tests used:
S. aureus [1] = assay: Disk diffusion antibacterial test; format: cell-based, Staphylococcus aureus; parameters: key to Inhibition zone (mm) S. aureus: —: inactive at concentration 50 mM; conditions: for Sensitivity of S. aureus to compound: there called agar dilution method; for Inhibition zone (mm) S. aureus: disc diffusion test, concentration 50 mM
Experimental: (§1) Antibacterial effects of spiro[indeno[2,1-c]pyridazine-9,4′-pyran]-3′,4-dicarbonitrile derivatives 5a–j were evaluated in vitro by using disk diffusion method against Gram-positive (S. aureus) and Gram negative (E. coli). The diameter of inhibition zone correlates to the sensitivity of a bacterium to an antibacterial agent. […] E. coli was resistant against all compounds tested (Table 2). Tetracycline and DMSO were used as positive control and negative control respectively. Next, the active compounds were analysed using MIC assay to determine the lowest concentration for inhibition. […] It seems due to the difference in structure of bacterial cell wall (i.e., the presence of outer membrane with lipid, lipopolysaccharide, and lipoprotein content in Gram negative bacteria), E. coli was resistant against the related synthetic compounds.
(§2) Antibacterial activity of the prepared synthetic compounds against the Gram-negative bacteria (E. coli; ATCC: 15922) and the Gram-positive bacteria (S. aureus; PTCC: 1112, International no. ATCC6538P) were examined by disk diffusion assay. Bacterial cultures were obtained from Persian Type Culture Collection, Tehran, Iran (PTCC). Isolated pure colonies from fresh grown bacteria were transferred from the plates into sterile normal saline solution and it was vortexed to form bacterial homogenous suspensions. The turbidity was then adjusted to 0.5 McFarland standard units, and the suspensions were poured over Mueller–Hinton agar (MHA) plates. Sterile filter paper disks were placed over these plates. The sterile disks were impregnated with the tested compounds. Positive control (tetracycline) and negative control ([…]) were used. To determine MIC, the concentrations of tested substance were prepared within the range from 30–5 mM. Incubate in incubator at 37 °C in 24 h for bacteria (Table 2).

E. coli = assay: Disk diffusion antibacterial test; format: cell-based, Escherichia coli; parameters: key: —: inactive at concentration 50 mM; conditions: disc diffusion test, concentration 50 mM
Experimental: as §1, §2

S. aureus [2] = assay: MIC determination; format: cell-based; conditions: Staphylococcus aureus; read-out: MICs (mM) S. aureus
Experimental: as §1, §2

A375 cells = assay: MTT cytotoxicity assay; format: cell-based; conditions: Homo sapiens, A-375, 48 h
Experimental: (§3) At first, in order to compare anti-cancer properties, the synthesized compounds 5a–j were evaluated against A549 cells, MCF-7 cells, A375 cells, PC3 cells, LNCaP cells and HDF cells lines using the MTT colorimetric assay. The activity is expressed as 50% growth inhibitory concentration (IC50) values at 48 h. We used DMSO (1%) as negative control and Etoposide as positive control.
(§4) Human non-small-cell lung cancer A549 cells, human breast cancer MCF-7 cells, human malignant melanoma cells (A375), human prostate cancer cells (PC3 cells, LNCaP cells) and normal cells HDF (human dermal fibroblast) were received from Pasture Institute, Tehran, Iran. MCF-7 cells were grown in RPMI 1640 medium, A549 cells, A375 cells, PC3 cells, LNCaP cells and HDF cells were grown in DMEM medium. All media contain 10% fetal bovine serum (FBS), penicillin G, streptomycin 100 μg mL^−1 and 1% L-glutamine. The cells were cultured and incubated under humidified 5% CO2 atmosphere at 37 °C.
(§5) The effect of compounds treatment on the viability of cancer cell lines was measured by (3-(4,5-dimethylthiazol-2-yl)-2,5-diphenyl tetrazolium bromide or MTT) assay (MTT assay kit, Bio IDEA, CatNo: BI1017, Iran) based on the ability of live cells to cleave the tetrazolium ring to a molecule that absorb at […] as per the manufacturer's instructions.[33] Etoposide (was kindly provided by Dr A. Foroumadi, Tehran medical Science University, Iran) and dimethyl sulfoxide (or DMSO) was used as positive and negative controls, respectively.[34] Briefly, cells were plated in 96-well culture plates (5 × 10^3 cells per well). After 24 h incubation, the cells were treated with different concentrations of the compounds. After 48 h at 37 °C, the medium was removed and 100 μL of MTT reagent (1 mg mL^−1) was added to each well, and cells were further incubated at 37 °C for 4 h. The MTT solution was removed, 50 μL of DMSO was added to each well to dissolve formazan crystals, and the plates were gently shaken for 10 minutes, followed by reading with an ELISA plate reader (BiotekELx 800, USA). The 50% inhibition concentration (IC50) was defined as the concentration that inhibited cell proliferation by 50% when compared to DMSO treated cells (as negative control).

A549 cells = assay: MTT cytotoxicity assay; format: cell-based; conditions: Homo sapiens, 48 h
Experimental: as §3, §4, §5

HDF cells = assay: MTT cytotoxicity assay; format: cell-based; conditions: 48 h, normal cells (human dermal fibroblast)
Experimental: as §3, §4, §5

LNCaP cells = assay: MTT cytotoxicity assay; format: cell-based; conditions: Homo sapiens, 48 h
Experimental: as §3, §4, §5

MCF-7 cells = assay: MTT cytotoxicity assay; format: cell-based; conditions: Homo sapiens, MCF7, 48 h
Experimental: as §3, §4, §5

PC3 cells = assay: MTT cytotoxicity assay; format: cell-based; conditions: Homo sapiens, PC-3, 48 h
Experimental: as §3, §4, §5

Compound: Cc1nn(-c2ccccc2)c2c1C1(C(C#N)=C(N)O2)c2ccccc2-c2c1n[nH]c(=O)c2C#N (centres unmarked) [5e, 6′-Amino-3′-methyl-3-oxo-1′-phenyl-2,3-dihydro-1′H-spiro[indeno[2,1-c]pyridazine-9,4′-pyrano[2,3-c]pyrazole]-4,5′-dicarbonitrile]
- Sensitivity of S. aureus to compound (S. aureus [1]): sensitive
- Inhibition zone (mm) E. coli (E. coli): —
- MIC (S. aureus [2]): 10 mM (≈ 4450 µg/mL)
- IC50 (A375 cells): > 100 µM
- IC50 (A549 cells): > 100 µM
- IC50 (HDF cells): > 100 µM
- IC50 (LNCaP cells): > 100 µM
- IC50 (MCF-7 cells): > 100 µM
- IC50 (PC3 cells): > 100 µM

Compound: N#CC1=C(N)Oc2[nH]c(=O)[nH]c(=O)c2C12c1ccccc1-c1c2n[nH]c(=O)c1C#N (centres unmarked) [5b, 7′-Amino-2′,3,4′-trioxo-1′,2,2′,3,3′,4′-hexahydrospiro[indeno[2,1-c]pyridazine-9,5′-pyrano[2,3-d]pyrimidine]-4,6′-dicarbonitrile]
- Sensitivity of S. aureus to compound (S. aureus [1]): sensitive
- Inhibition zone (mm) E. coli (E. coli): —
- MIC (S. aureus [2]): 5 mM (≈ 2000 µg/mL)
- IC50 (A375 cells): > 100 µM
- IC50 (A549 cells): > 100 µM
- IC50 (HDF cells): > 100 µM
- IC50 (LNCaP cells): > 100 µM
- IC50 (MCF-7 cells): > 100 µM
- IC50 (PC3 cells): > 100 µM
- melting point: 322 to 324 °C

Compound: Cc1n[nH]c2c1C1(C(C#N)=C(N)O2)c2ccccc2-c2c1n[nH]c(=O)c2C#N (centres unmarked) [5f, 6′-Amino-3′-methyl-3-oxo-2,3-dihydro-1′H-spiro[indeno[2,1-c]pyridazine-9,4′-pyrano[2,3-c]pyrazole]-4,5′-dicarbonitrile]
- Sensitivity of S. aureus to compound (S. aureus [1]): sensitive
- Inhibition zone (mm) E. coli (E. coli): —
- MIC (S. aureus [2]): 5 mM (≈ 1850 µg/mL)
- IC50 (A375 cells): > 100 µM
- IC50 (A549 cells): > 100 µM
- IC50 (HDF cells): > 100 µM
- IC50 (LNCaP cells): > 100 µM
- IC50 (MCF-7 cells): > 100 µM
- IC50 (PC3 cells): > 100 µM

Compound: N#CC1=C(N)Oc2c(c(=O)oc3ccccc23)C12c1ccccc1-c1c2n[nH]c(=O)c1C#N (centres unmarked) [5i, 2′-Amino-3,5′-dioxo-2,3-dihydro-5′H-spiro[indeno[2,1-c]pyridazine-9,4′-pyrano[3,2-c]chromene]-3′,4-dicarbonitrile]
- Sensitivity of S. aureus to compound (S. aureus [1]): sensitive
- Inhibition zone (mm) E. coli (E. coli): —
- MIC (S. aureus [2]): 5 mM (≈ 2170 µg/mL)
- IC50 (A375 cells): > 100 µM
- IC50 (A549 cells): > 100 µM
- IC50 (HDF cells): > 100 µM
- IC50 (LNCaP cells): > 100 µM
- IC50 (MCF-7 cells): > 100 µM
- IC50 (PC3 cells): > 100 µM
- melting point: 308 to 310 °C

Compound: N#CC1=C(N)Oc2[nH]c(=S)[nH]c(=O)c2C12c1ccccc1-c1c2n[nH]c(=O)c1C#N (centres unmarked) [5c, 7′-Amino-3,4′-dioxo-2′-thioxo-1′,2,2′,3,3′,4′-hexahydrospiro[indeno[2,1-c]pyridazine-9,5′-pyrano[2,3-d]pyrimidine]-4,6′-dicarbonitrile]
- Sensitivity of S. aureus to compound (S. aureus [1]): sensitive
- Inhibition zone (mm) E. coli (E. coli): —
- MIC (S. aureus [2]): 50 mM (≈ 20800 µg/mL)
- IC50 (A375 cells): > 100 µM
- IC50 (A549 cells): > 100 µM
- IC50 (HDF cells): > 100 µM
- IC50 (LNCaP cells): > 100 µM
- IC50 (MCF-7 cells): > 100 µM
- IC50 (PC3 cells): > 100 µM
- melting point: 305 to 307 °C

Compound: N#CC1=C(N)OC2=C(C(=O)c3ccccc32)C12c1ccccc1-c1c2n[nH]c(=O)c1C#N (centres unmarked) [5j, 2-Amino-3′,5-dioxo-2′,3′-dihydro-5H-spiro[indeno[1,2-b]pyran-4,9′-indeno[2,1-c]pyridazine]-3,4′-dicarbonitrile]
- Inhibition zone (mm) S. aureus (S. aureus [1]): —
- Inhibition zone (mm) E. coli (E. coli): —
- IC50 (A375 cells): > 100 µM
- IC50 (A549 cells): > 100 µM
- IC50 (HDF cells): > 100 µM
- IC50 (LNCaP cells): > 100 µM
- IC50 (MCF-7 cells): > 100 µM
- IC50 (PC3 cells): > 100 µM
- melting point: 298 to 300 °C

Compound: Cc1nn(-c2cccc(Cl)c2)c2c1C1(C(C#N)=C(N)O2)c2ccccc2-c2c1n[nH]c(=O)c2C#N (centres unmarked) [5g, 6′-Amino-1′-(3-chlorophenyl)-3′-methyl-3-oxo-2,3-dihydro-1′H-spiro[indeno[2,1-c]pyridazine-9,4′-pyrano[2,3-c]pyrazole]-4,5′-dicarbonitrile]
- Sensitivity of S. aureus to compound (S. aureus [1]): sensitive
- Inhibition zone (mm) E. coli (E. coli): —
- MIC (S. aureus [2]): 5 mM (≈ 2400 µg/mL)
- IC50 (A375 cells): > 100 µM
- IC50 (A549 cells): > 100 µM
- IC50 (HDF cells): > 100 µM
- IC50 (LNCaP cells): > 100 µM
- IC50 (MCF-7 cells): > 100 µM
- IC50 (PC3 cells): > 100 µM

Compound: COc1cc([C@@H]2c3cc4c(cc3[C@@H](O[C@@H]3O[C@@H]5CO[C@@H](C)O[C@H]5[C@H](O)[C@H]3O)[C@H]3COC(=O)[C@H]23)OCO4)cc(OC)c1O [Etoposide, reference compound]
- IC50 (A375 cells): 25.31 ± 0.018 µM
- IC50 (A549 cells): 60 ± 0.015 µM
- IC50 (HDF cells): > 100 µM
- IC50 (LNCaP cells): 90 ± 0.031 µM
- IC50 (MCF-7 cells): 30 ± 0.011 µM
- IC50 (PC3 cells): 40 ± 0.062 µM

Compound: COC(=O)c1nn(-c2ccccc2)c2c1C1(C(C#N)=C(N)O2)c2ccccc2-c2c1n[nH]c(=O)c2C#N (centres unmarked) [5h, Methyl 6′-amino-4,5′-dicyano-3-oxo-1′-phenyl-2,3-dihydro-1′H-spiro[indeno[2,1-c]pyridazine-9,4′-pyrano[2,3-c]pyrazole]-3′-carboxylate]
- Inhibition zone (mm) S. aureus (S. aureus [1]): —
- Inhibition zone (mm) E. coli (E. coli): —
- IC50 (A375 cells): > 100 µM
- IC50 (A549 cells): > 100 µM
- IC50 (HDF cells): > 100 µM
- IC50 (LNCaP cells): > 100 µM
- IC50 (MCF-7 cells): > 100 µM
- IC50 (PC3 cells): > 100 µM

Compound: CC1(C)CC(=O)C2=C(C1)OC(N)=C(C#N)C21c2ccccc2-c2c1n[nH]c(=O)c2C#N (centres unmarked) [5d, 2-Amino-7,7-dimethyl-3′,5-dioxo-2′,3′,5,6,7,8-hexahydrospiro[chromene-4,9′-indeno[2,1-c]pyridazine]-3,4′-dicarbonitrile]
- Inhibition zone (mm) S. aureus (S. aureus [1]): —
- Inhibition zone (mm) E. coli (E. coli): —
- IC50 (A375 cells): > 100 µM
- IC50 (A549 cells): > 100 µM
- IC50 (HDF cells): > 100 µM
- IC50 (LNCaP cells): > 100 µM
- IC50 (MCF-7 cells): > 100 µM
- IC50 (PC3 cells): > 100 µM
- melting point: 315 to 318 °C
